Results from patent US6143910A, “Methods for preparation and use of 1α, 24(S) -dihydroxy vitamin D2” (priority 1998, dated 2000).
Like-named read-outs stand apart in the source and are kept apart here.

Columns and labels:
vitamin D receptor (VDR) = target: T1, vitamin D receptor (VDR) (Homo sapiens, UniProt P11473); experiment: Vitamin D-dependent transcriptional activation, growth hormone production in co-transfected COS-1 cells; assay type: cell-based
T1 sequence (P11473 1-427): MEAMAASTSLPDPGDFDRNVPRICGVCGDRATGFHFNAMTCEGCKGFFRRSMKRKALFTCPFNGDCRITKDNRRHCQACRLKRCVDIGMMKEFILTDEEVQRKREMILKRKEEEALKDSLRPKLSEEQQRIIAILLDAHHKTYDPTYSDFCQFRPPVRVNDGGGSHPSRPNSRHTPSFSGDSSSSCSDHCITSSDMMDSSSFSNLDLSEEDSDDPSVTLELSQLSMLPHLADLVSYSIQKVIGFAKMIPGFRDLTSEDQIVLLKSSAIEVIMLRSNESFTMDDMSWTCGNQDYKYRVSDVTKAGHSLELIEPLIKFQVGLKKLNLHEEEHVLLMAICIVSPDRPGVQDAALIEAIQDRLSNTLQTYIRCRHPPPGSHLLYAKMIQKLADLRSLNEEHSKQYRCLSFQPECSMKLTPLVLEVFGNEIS
Protocol: The biological activity in vitro of chemically synthesized 1α,24(S)-(OH)2 D2 and 1α,24(R)-(OH)2 D2 was measured using a vitamin D-dependent transcriptional activation model system in which a vitamin D receptor (VDR)-expressing plasmid pSG5-hVDR1/3and a plasmid p(CT4)^4 TKGH containing a Growth Hormone (GH)-gene, under the control of a vitamin D-responsive element (VDRE) were co-transfected into Green monkey kidney, COS-1 cells. DNA's for these two vectors were supplied by Dr. Mark Haussler, Department of Biochemistry, University of Arizona, Tucson, Ariz.
Tranfected cells were incubated with vitamin D metabolites and growth hormone production was measured.

[1] = target: T2, vitamin D serum binding protein (DBP) (Rattus norvegicus, UniProt P04276); experiment: Affinity for vitamin D serum binding protein using vitamin D deficient rat serum
T2 sequence (P04276 17-476): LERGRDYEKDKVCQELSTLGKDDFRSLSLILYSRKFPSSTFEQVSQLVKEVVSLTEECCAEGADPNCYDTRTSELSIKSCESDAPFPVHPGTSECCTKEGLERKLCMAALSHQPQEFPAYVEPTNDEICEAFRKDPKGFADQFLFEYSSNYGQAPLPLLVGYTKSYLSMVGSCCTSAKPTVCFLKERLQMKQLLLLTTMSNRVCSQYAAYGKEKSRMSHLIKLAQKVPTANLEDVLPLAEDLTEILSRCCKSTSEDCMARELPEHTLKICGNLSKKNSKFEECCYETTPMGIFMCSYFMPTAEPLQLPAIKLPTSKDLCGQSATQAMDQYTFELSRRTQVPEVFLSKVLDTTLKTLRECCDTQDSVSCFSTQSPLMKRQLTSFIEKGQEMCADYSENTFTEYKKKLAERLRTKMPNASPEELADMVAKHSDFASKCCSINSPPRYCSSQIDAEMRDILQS
From the text: In addition, the weak binding by the DBP was indicative of more rapid clearance, allowing for low toxicity.

[2] = Dose ranging study in postmenopausal osteoporotic women; assay type: in vivo, human; conditions: oral 0.5 to 8.0 μg/day, escalated weekly over five weeks
Protocol: Twenty postmenopausal osteoporotic women are enrolled in an open label study.
On admission to the study, all patients receive instruction on selecting a daily diet containing 400 to 600 mg of calcium. Compliance to this diet is verified at weekly intervals by 24-hour food records and by interviews with each patient.
All patients complete a one-week baseline period, a five-week treatment period, and a one-week post-treatment observation period. During the treatment period, patients orally self-administer 1α,24(S)-dihydroxyvitamin D2 at an initial dose of 0.5 μg/day for the first week, and at successively higher doses of 1.0, 2.0, 4.0, and 8.0 μg/day in each of the following four weeks. All doses are administered before breakfast.
Blood and urine chemistries are monitored on a weekly basis throughout the study. Key blood chemistries include fasting serum levels of-calcium, phosphorus, osteocalcin, creatinine, and blood urea nitrogen. Key urine chemistries include 24-hour excretion of calcium, phosphorus, and creatinine.

[3] = Preventive treatment of bone mass loss in postmenopausal osteoporotic women; assay type: in vivo, human; conditions: at or above 1.0 μg/day, 24 to 36 months
Protocol: A clinical study is conducted with postmenopausal osteoporotic out-patientshaving ages between 55 and 75 years. The study involves up to 120 patients randomly divided into three treatment groups and continues for 24 to 36 months. Two of the treatment groups receive constant dosages of 1α,24(S)-dihydroxy vitamin D2 (u.i.d.; two different dose levels at or above 1.0 μg/day) and the other group receives a matching placebo. All patients maintain a normal intake of dietary calcium (500 to 800 mg/day) and refrain from using calcium supplements. Efficacy is evaluated by pre- and post-treatment comparisons of the patient groups with regard to (a) total body calcium retention, and (b) radial and spinal bone mineral density as determined by dual-photon absorptiometry (DPA) or dual-energy x-ray absorptiometry (DEXA). Safety is evaluated by comparisons of urinary hydroxyproline excretion, serum and urine calcium levels, creatinine. clearance, blood urea nitrogen, and other routine determinations.

[4] = Dermatological testing, topical treatment of dermatitis; assay type: in vivo, human; conditions: ointment 10 μg per gram, twice daily, four to six weeks
Protocol: Compositions containing 1α,24(S)-dihydroxy vitamin D2 are evaluated for therapeutic efficacy of the composition in the topical treatment of dermatitis (contact and ectopic). The composition evaluated is an ointment containing 10 μg of 1α,24-dihydroxy vitamin D2 per gram of ointment in a petrolatum-almond oil base. […] The patients are treated in an out-patient clinic. They are instructed to use the preparation two times a day.
The ointment is as far as possible applied to a single lesion, or to an area of the disease. The ointment and its container are weighed before the treatment starts and returned with any unused contents for reweighing at the end of the treatment.
The area of the lesion treated is estimated and recorded, and the lesion is photographed as required, together with suitable "control" lesions. The latter are preferably lesions of similar size and stage of development, either in the vicinity of the treated lesion or symmetrically contralateral. Relevant details of the photographic procedure are recorded so as to be reproduced when the lesions are next photographed (distance, aperture, angle, background, etc.). The ointment is applied twice daily and preferably left uncovered. The "control" lesions are left untreated, but if this is not possible, the treatment used on them is noted. […]

C=C1/C(=C\C=C2/CCC[C@]3(C)[C@@H]([C@H](C)/C=C/[C@@](C)(O)C(C)C)CC[C@@H]23)C[C@@H](O)C[C@@H]1O [1α,24(S)-(OH)2 D2, 1α,24(S)-dihydroxy Vitamin D2]
Activity in the transcriptional activation system compared with 1α,24(R)-(OH)2 D2 (vitamin D receptor (VDR)): significantly more activity
Binding affinity for the vitamin D serum binding protein (in words) [1]: relatively poor binding affinity
Binding affinity for the vitamin D serum binding protein (in words) ([1]; listed as 1α,24(S)-dihydroxy vitamin D2): more weakly than does 1,25-(OH)2 D3
24-hour urinary calcium levels [2]: modest increases
Routinely monitored serum parameters [2]: no effect on any routinely monitored serum parameters
Serum osteocalcin levels [2]: increases in serum osteocalcin levels
Urinary excretion of hydroxyproline [2]: nor does it increase urinary excretion of hydroxyproline
Incidence of hypercalcemia or hypercalciuria [3]: insignificant incidence
Total body calcium, radial and spinal bone densities versus placebo [3]: significantly higher
Incidence of hypercalcemia [4]: insignificant incidence of hypercalcemia
Lesion severity scores (erythema, scaling, thickness, rated 0 to 3) [4]: lower scores than the control lesions
